Key:
EBV = test: In situ hybridization of EBV DNA in anti-IgG stimulated DMSO-released Akata cells; assay type: cell-based, Epstein-Barr virus; conditions: 20 hrs after 50 μg/ml anti-IgG; vesnarinone 0-100 μg/ml; acyclovir pretreatment
Protocol: The human Burkitt's lymphoma cell line, Akata, provided by Dr. Kenzo Takada (Takada, Int. J. Cancer, 33:27-32 (1984); and Takada et al, Virus Genes, 5:147-156 (1991)), was cultured at 37° C. in RPMI 1640 medium supplemented with 15% (v/v) heat-inactivated FCS, and 20 μg/ml gentamicin.
The cell progression of Akata cells was arrested by culturing of the cells for 96 hrs in the presence of 1.5% (y/v) DMSO (Sigma, St. Louis, Mo.) (Sawai et al, Exp. Cell Res., 187:4-10 (1990); and Takase et al, Cell Growth Differ., 3:515-521 (1992)).
1 hr after transfer (release from DMSO), a goat F(ab')2 fragment of anti-human IgG antibody (Organon Teknika, Durham, N.C.) was added at a concentration of 50 μg/ml to induce productive EBV replication (Takagi et al, Virology, 185:309-315 (1991)).
3 hrs and 20 hrs after treatment with the anti-IgG, the cells were harvested for flow cytometric detection of the BamHI Z replication activator (ZEBRA), and for in situ detection of EBV DNA, respectively. […]
More specifically, cells coated on a glass slide were fixed in acetone at room temperature for 10 min. […] Positivity for EBV DNA was determined by the presence of red-colored grains and at least 1000 cells were examined under light microscopy. […]

human T cells [1] = test: [3H]thymidine incorporation by PHA-stimulated human T cells; assay type: cell-based; conditions: 10 μg/ml PHA 48 hrs; 15 nM aphidicolin or 100 μM deferoxamine (FIG. 1B)
Protocol: More specifically, human primary T cells were separated from peripheral blood obtained by leukopheresis of healthy donors. Mononuclear cell suspensions were prepared by Ficoll-Hypaque gradient centrifugation, and T cells were obtained by E-rosette enrichment as described by Kumagai et al, J. Cell. Physiol., 137:329 (1988).
Then, 1.0 μCi of [^3 H]thymidine (6.7 Ci/mmole, ICN), was added to 2.0×10^6 cells (100 μl), and the cells were pulse-labeled for 6 hrs.

[2] = tested on: nucleoside and nucleobase transport in human T cells; test: [3H]nucleoside / [3H]nucleobase transport, 1 min pulse, T cells; assay type: cell-based; conditions: 250 μM vesnarinone, 100 μM deferoxamine, 15 nM aphidicolin or 1.0 μM dipyridamole
human T cells [3] = test: 30 min [3H]thymidine, [3H]uridine and [3H]amino acid incorporation; assay type: cell-based; conditions: 30 min label; 250 μM vesnarinone, 15 nM aphidicolin or 100 μM deferoxamine
Protocol: Next, the PHA-stimulated T cells were labelled for 30 min with 5.0 μCi/ml of an [^3 H]amino acid mixture (1.0 mCi/ml, Amersham, Arlington Heights, Ill.), washed twice with ice-cold PBS, and then lysed in PBS containing 1.0% (w/v) SDS, followed by addition of a mixture of 7.0% (w/v) trichloroacetic acid and 1.0% (w/v) pyrophosphate. The precipitates were loaded on GF/A filters, and washed extensively with a mixture of 7.0% (w/v) trichloroacetic acid and 1.0% (w/v) pyrophosphate. Radioactivity was measured by scintillation counting.

human T cells [4] = test: Cell numbers of PHA-stimulated human T cells over 120 hrs; assay type: cell-based; conditions: 10 μg/ml PHA, 0-120 hrs; 250 μM vesnarinone, 15 nM aphidicolin or 100 μM deferoxamine
Protocol: Next, the effects of the above-described drugs on cell proliferation were evaluated over a period of 120 hrs.

[5] = tested on: HIV-1 strain 18c (AZT-resistant); test: HIV-1 p24 antigen production by infected PBMC, strain 18c; assay type: cell-based; conditions: Human immunodeficiency virus 1, 120 h; 18c infected PBMC, 5 days, AZT alone
Protocol: (§1) More specifically, PBMC were incubated for 48 hr with 3.0 μg/ml of PHA and 10 U/ml of IL-2. Then, 10-100 TCID50 virus/ml of clinical isolate strains of HIV-1, 18a (AZT-sensitive) or 18c (AZT-resistant), were added. […] After 5 days of infection, the supernatant was collected and HIV-1 p24 antigen was measured using the p24 ELISA kit (NEN Dupont).
(§2) The combination index (CI) was calculated using multiple drug effect analysis of Chou and Tala, as described by Johnson et al, J. Infect. Dis., 159:837-844 (1989). CI values of <1, =1, and >1, indicate synergism, additive effects, and antagonism, respectively.

[6] = tested on: HIV-1 strain 18a (AZT-sensitive); test: microbe, parasite or virus in culture; conditions: Human immunodeficiency virus 1, PBMC, 120 h, read-out: IC50, p24 production
Protocol: as §1, §2

U937 cells [7] = test: Intracellular AZT-MP, AZT-DP, AZT-TP in U937 cells by HPLC; conditions: U937 cells, 5.0 μCi/ml [3H]AZT, 2 hr
Protocol: 1.0 ml fractions were collected, and the radioactivity was measured by liquid scintillation. The retention time for AZT and AZT-MP was confirmed using cold AZT and AZT-MP (Sigma) under the same conditions.
Intracellular concentrations of [^3 H]AZT-MP, [^3 H]AZT-DP, and [^3 H]AZT-TP were measured using HPLC as described above.

[8] = MTT cell viability of MRC5 cells; assay type: cell-based; conditions: human, mrc5 cells, read-out: MTT Cell Viability (% of control)
Protocol: More specifically, 5.0 μg/ml of MTT in Eagles MEM supplemented with 2.0% (v/v) fetal bovine serum was added to each well, and incubated at 37° C. for 6 hr. The cells were then solubilized by adding 30% (w/v) SDS in 0.02N HCl. The cultures were incubated overnight at 37° C. Then, the optical density was measured at 570 nm on a spectrophotometer.

CMV strain AD169 = test: CMV plaque reduction assay in MRC5 cells; assay type: cell-based; conditions: Human betaherpesvirus 5, AD169, MRC5, 168 h; single compound assay, regression analysis; read-out: MIC50 (minimum concentration that reduces plaque production by 50%)
Protocol: More specifically, subconfluent monolayers of MRC5 cells (Biowhittaker, Walkersville, Md.) in 12-well tissue culture plates were exposed to a suspension of a 1:500 dilution of stock virus (CMV strain AD169; ATCC No. VR-538) in Eagles Minimal Essential Medium (MEM) supplemented with 2.0% (v/v) fetal bovine serum, for 2 hr at 37° C. to allow for virus absorption. The fluid containing unabsorbed virus was then removed, and the cell layer rinsed with Eagles MEM without serum.
The minimum compound concentration that reduces plaque production by 50% (MIC50) was calculated from single compound assays by using a regression analysis program for semilog curve fitting.
The following formula of additivity, which is appropriate for inhibitors affecting different sites, was used.

[9] = in vivo; cited from earlier work
U937 cells [10] = test: Intracellular phosphorylated AZT in U937 cells (DEAE filter); conditions: 0-250 μM vesnarinone or 0-100 nM dipyridamole; 2 hr
CHO cells [11] = test: Rescue of CHO cells from cytostatic effects of 5-FUd; assay type: cell-based, Chinese hamster; conditions: 50 nM 5-FUd, 120 hrs; 0-250 μM vesnarinone or 1.0-10 μM dipyridamole
Text: Nucleoside transport inhibitors, such as dipyridamole or NBMPR, are known to rescue cell proliferation from the cytotoxic effects of 5-fluorouridine(5-FUd) or high dose thymidine, by inhibiting transport of this cytotoxic nucleoside analog or thymidine (Aronow et al, Mol. Cell Biol., 6:2957-2962 (1986)).

Raji cells = test: [3H]adenosine / [3H]adenine transport in Raji cells; conditions: 0-750 μM vesnarinone or 0-100 μM dipyridamole, 1 min pulse
U937 cells [12] = test: [3H]thymidine uptake in U937 cells within 1 min; assay type: cell-based, human
Protocol: Dipyridamole was prepared as a 50 mM stock solution dissolved in ethanol.

CHO cells [13] = test: [3H]adenosine / [3H]adenine transport in CHO cells; conditions: 0-750 μM vesnarinone or 0-100 μM dipyridamole, 1 min pulse

Structure (SMILES): Nc1nc2c(ncn2COCCO)c(=O)[nH]1 [acyclovir, 9-[(2-hydroxyethoxy)methyl]guanine, reference compound]
- population of EBV producing cells (positivity for EBV DNA) (EBV): dramatically reduced by acyclovir pretreatment

Structure (SMILES): C[C@@]1(CO)[C@H](O)CC[C@@]2(C)[C@H]1CC[C@H]1C[C@@H]3C[C@@]12CC[C@]3(O)CO [aphidicolin]
- [3H]thymidine incorporation (human T cells [1]): also inhibited [^3 H]thymidine incorporation
- transport of [3H]thymidine, [3H]adenosine, [3H]adenine, [3H]uracil [2]: had no effect on the transport of these nucleosides or nucleobases
- [3H]uridine incorporation, brief exposure (human T cells [3]): did not inhibit [^2 H]uridine incorporation
- cell proliferation (cell number) (human T cells [4]): no increases in cell number were observed

Structure (SMILES): Cc1cn([C@H]2C[C@H](N=[N+]=[N-])[C@@H](CO)O2)c(=O)[nH]c1=O [AZT, 3'azido-3'-deoxythymidine]
- IC50 [5]: > 640 nM
- IC50 [6]: 0.67 nM
- intracellular phosphorylation of AZT (U937 cells [7]): phosphorylated to AZT-MP, but poorly phosphorylated beyond this stage to the diphosphate form

Structure (SMILES): Nc1nc2c(ncn2COC(CO)CO)c(=O)[nH]1 [DHPG, 9-(1,3-dihydroxy-2-propoxymethyl) guanine, reference compound]
- viability at 0.625 µM ([8]; DHPG 0.625 μM alone): 100%
- viability at 1.25 µM ([8]; DHPG 1.250 μM alone): 100%
- viability at 5 µM ([8]; DHPG 5.000 μM alone): 100%
- EC50 (CMV strain AD169): > 5000 nM

Structure (SMILES): CC(=O)N(O)CCCCCNC(=O)CCC(=O)N(O)CCCCCNC(=O)CCC(=O)N(O)CCCCCN [deferoxamine]
- [3H]thymidine incorporation (human T cells [1]): also inhibited [^3 H]thymidine incorporation
- transport of [3H]thymidine, [3H]adenosine, [3H]adenine, [3H]uracil [2]: had no effect on the transport of these nucleosides or nucleobases
- [3H]thymidine incorporation, brief exposure (human T cells [3]): only partially inhibited [^3 H]thymidine incorporation
- [3H]uridine incorporation, brief exposure (human T cells [3]): did not inhibit [^2 H]uridine incorporation
- cell proliferation (cell number) (human T cells [4]): no increases in cell number were observed

Structure (SMILES): OCCN(CCO)c1nc(N2CCCCC2)c2nc(N(CCO)CCO)nc(N3CCCCC3)c2n1 [dipyridamole, reference compound]
- therapeutic range [9]: 10 to 100 nM
- intracellular concentration of phosphorylated AZT (U937 cells [10]): did not affect intracellular concentrations of phosphorylated AZT
- transport of [3H]thymidine, [3H]adenosine, [3H]adenine, [3H]uracil [2]: suppressed nucleoside transport, but not nucleobase transport
- reversal of cytostatic effects of 5-FUd (cell number) (CHO cells [11]): significantly reversed the cytostatic effects of 5-FUd
- [3H]adenosine and [3H]adenine transport (Raji cells): inhibited adenosine transport in a selective fashion with no effect on adenine transport in its therapeutic range
- uptake of thymidine (U937 cells [12]; 0-250 μM vesnarinone or 0-1000 nM dipyridamole): inhibited the uptake of thymidine in a dose-dependent manner
- IC50 (U937 cells [12]; Homo sapiens, U-937, 1 min, U937 cells, within 1 min): < 10 nM
- [3H]adenosine and [3H]adenine transport (CHO cells [13]): inhibited adenosine transport in a selective fashion with no effect on adenine transport in its therapeutic range

From patent US5670520A, “Method for inhibiting virus replication in mammalian cells using carbostyil derivatives” (Otsuka Pharmaceutical Co., Ltd., priority 1996, dated 1997)
